Reference: ChEMBL document CHEMBL1201862, “PubChem BioAssay data set” (2004)
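Results reflect a 48-hour exposure of cells in 96-well plates to compound at five concentrations. GI50 is the concentration that inhibits growth by half.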 Active and inactive are the calls of the source. Cut-off read from the data, not from the text of the source: active = GI50 up to about 1.1 µM and inactive = higher.

Columns and labels:
Test in all cases: DTP human tumour cell line panel, 48 h
786-0 = system: 786-0
A549 = system: A549
ACHN = system: ACHN
IGROV-1 = system: IGROV-1
K562 = system: K562
KM12 = system: KM12
NCI-H226 = system: NCI-H226
NCI-H460 = system: NCI-H460
OVCAR-5 = system: OVCAR-5
SF-268 = system: SF-268
SF-295 = system: SF-295
SK-OV-3 = system: SK-OV-3
SR = system: SR
U-251 = system: U-251
UO-31 = system: UO-31
CCRF-CEM = system: CCRF-CEM
SK-MEL-5 = system: SK-MEL-5

SMILES: CC1OC(n2cc(C(F)(F)F)c(=O)[nH]c2=O)C=CC1=O (centres undefined)
- GI50 (786-0): 18.4 µM (inactive)
- GI50 (A549): 47.3 µM (inactive)
- GI50 (ACHN): 17.5 µM (inactive)
- GI50 (IGROV-1): 20 µM (inactive)
- GI50 (K562): 27.5 µM (inactive)
- GI50 (KM12): 18.5 µM (inactive)
- GI50 (NCI-H226): 28.4 µM (inactive)
- GI50 (NCI-H460): 23.5 µM (inactive)
- GI50 (OVCAR-5): 19.4 µM (inactive)
- GI50 (SF-268): 39.2 µM (inactive)
- GI50 (SF-295): 27.6 µM (inactive)
- GI50 (SK-OV-3): 19.6 µM (inactive)
- GI50 (SR): 12.7 µM (inactive)
- GI50 (U-251): > 10 µM (inactive)
- GI50 (UO-31): 18.2 µM (inactive)

SMILES: O=C1Nc2ccccc2N=CC1NC(=O)C(c1ccccc1)c1ccccc1 (centres undefined)
- GI50 (786-0): > 100 µM (inactive)
- GI50 (A549): > 100 µM (inactive)
- GI50 (ACHN): > 100 µM (inactive)
- GI50 (CCRF-CEM): > 100 µM (inactive)
- GI50 (IGROV-1): > 100 µM (inactive)
- GI50 (K562): > 100 µM (inactive)
- GI50 (KM12): > 100 µM (inactive)
- GI50 (NCI-H226): > 100 µM (inactive)
- GI50 (NCI-H460): > 100 µM (inactive)
- GI50 (OVCAR-5): > 100 µM (inactive)
- GI50 (SF-268): > 100 µM (inactive)
- GI50 (SF-295): > 100 µM (inactive)
- GI50 (SK-MEL-5): > 100 µM (inactive)
- GI50 (SK-OV-3): > 100 µM (inactive)
- GI50 (U-251): > 100 µM (inactive)
- GI50 (UO-31): > 100 µM (inactive)

SMILES: O=C(COc1ccc(Cl)cc1)N1CCN(C(=O)COc2ccc(Cl)cc2)c2ccccc21
- GI50 (786-0): 64.9 µM (inactive)
- GI50 (A549): 33.5 µM (inactive)
- GI50 (ACHN): 33.6 µM (inactive)
- GI50 (CCRF-CEM): 34 µM (inactive)
- GI50 (IGROV-1): 50.7 µM (inactive)
- GI50 (K562): 37.6 µM (inactive)
- GI50 (KM12): 57 µM (inactive)
- GI50 (NCI-H460): 60.7 µM (inactive)
- GI50 (OVCAR-5): 70 µM (inactive)
- GI50 (SF-268): 41.6 µM (inactive)
- GI50 (SF-295): 54.5 µM (inactive)
- GI50 (SK-OV-3): 81.5 µM (inactive)
- GI50 (U-251): 74 µM (inactive)
- GI50 (UO-31): 7.23 µM (inactive)

SMILES: CC12CP(=O)(c3ccccc3)CC1C2(Cl)Cl (centres undefined)
- GI50 (786-0): > 100 µM (inactive)
- GI50 (A549): > 100 µM (inactive)
- GI50 (CCRF-CEM): > 100 µM (inactive)
- GI50 (IGROV-1): > 100 µM (inactive)
- GI50 (K562): > 100 µM (inactive)
- GI50 (KM12): > 100 µM (inactive)
- GI50 (NCI-H460): > 100 µM (inactive)
- GI50 (SF-295): > 100 µM (inactive)
- GI50 (SK-MEL-5): > 100 µM (inactive)
- GI50 (SK-OV-3): > 100 µM (inactive)
- GI50 (U-251): > 100 µM (inactive)

SMILES: CC(=O)Nc1c(Nc2ccccc2)[nH]c(C)nc1=S
- GI50 (786-0): > 100 µM (inactive)
- GI50 (A549): > 100 µM (inactive)
- GI50 (ACHN): > 100 µM (inactive)
- GI50 (CCRF-CEM): > 100 µM (inactive)
- GI50 (IGROV-1): > 100 µM (inactive)
- GI50 (K562): > 100 µM (inactive)
- GI50 (KM12): > 100 µM (inactive)
- GI50 (NCI-H460): > 100 µM (inactive)
- GI50 (OVCAR-5): > 100 µM (inactive)
- GI50 (SF-268): > 100 µM (inactive)
- GI50 (SF-295): > 100 µM (inactive)
- GI50 (SK-MEL-5): > 100 µM (inactive)
- GI50 (SK-OV-3): > 100 µM (inactive)
- GI50 (UO-31): > 100 µM (inactive)

SMILES: CC(=O)OCC1OC(N2C(=O)C(=O)c3ccccc32)C(OC(C)=O)C(OC(C)=O)C1OC(C)=O (centres undefined)
- GI50 (786-0): > 100 µM (inactive)
- GI50 (A549): > 100 µM (inactive)
- GI50 (ACHN): > 100 µM (inactive)
- GI50 (CCRF-CEM): > 100 µM (inactive)
- GI50 (IGROV-1): > 100 µM (inactive)
- GI50 (K562): > 100 µM (inactive)
- GI50 (KM12): > 100 µM (inactive)
- GI50 (NCI-H226): > 100 µM (inactive)
- GI50 (NCI-H460): > 100 µM (inactive)
- GI50 (SF-268): > 100 µM (inactive)
- GI50 (SF-295): > 100 µM (inactive)
- GI50 (SK-MEL-5): > 100 µM (inactive)
- GI50 (SK-OV-3): > 100 µM (inactive)
- GI50 (SR): > 100 µM (inactive)
- GI50 (U-251): > 100 µM (inactive)
- GI50 (UO-31): > 100 µM (inactive)

SMILES: CCOC12OC3=C(CC1CC1=C(CCC1=O)O2)C(=O)CC3 (centres undefined)
- GI50 (786-0): > 100 µM (inactive)
- GI50 (A549): > 100 µM (inactive)
- GI50 (CCRF-CEM): > 100 µM (inactive)
- GI50 (IGROV-1): > 100 µM (inactive)
- GI50 (K562): > 100 µM (inactive)
- GI50 (KM12): > 100 µM (inactive)
- GI50 (NCI-H226): > 100 µM (inactive)
- GI50 (NCI-H460): > 100 µM (inactive)
- GI50 (OVCAR-5): > 100 µM (inactive)
- GI50 (SF-268): > 100 µM (inactive)
- GI50 (SF-295): > 100 µM (inactive)
- GI50 (SK-MEL-5): > 100 µM (inactive)
- GI50 (SK-OV-3): > 100 µM (inactive)
- GI50 (SR): > 100 µM (inactive)
- GI50 (U-251): > 100 µM (inactive)
- GI50 (UO-31): > 100 µM (inactive)

SMILES: O=C1C2C3C=C4c5ccccc5N(c5ccccc5)C4(C2C(=O)N1c1ccc(Cl)cc1)[C@H]1C(=O)N(c2ccc(Cl)cc2)C(=O)[C@@H]31 (some centres undefined)
- GI50 (786-0): > 100 µM (inactive)
- GI50 (A549): > 100 µM (inactive)
- GI50 (CCRF-CEM): > 100 µM (inactive)
- GI50 (IGROV-1): > 100 µM (inactive)
- GI50 (K562): > 100 µM (inactive)
- GI50 (KM12): > 100 µM (inactive)
- GI50 (NCI-H226): > 100 µM (inactive)
- GI50 (NCI-H460): > 100 µM (inactive)
- GI50 (OVCAR-5): > 100 µM (inactive)
- GI50 (SF-295): > 100 µM (inactive)
- GI50 (SK-MEL-5): > 100 µM (inactive)
- GI50 (SK-OV-3): > 100 µM (inactive)
- GI50 (SR): > 100 µM (inactive)
- GI50 (U-251): > 100 µM (inactive)
- GI50 (UO-31): > 100 µM (inactive)

SMILES: Cc1ccc(-c2cc(O)c3cc4c(cc3n2)OCO4)cc1
- GI50 (786-0): 1.78 µM (inactive)
- GI50 (A549): 2.02 µM (inactive)
- GI50 (ACHN): 7.67 µM (inactive)
- GI50 (CCRF-CEM): 1.05 µM (active)
- GI50 (IGROV-1): 3.48 µM (inactive)
- GI50 (K562): 0.705 µM (active)
- GI50 (KM12): 0.836 µM (active)
- GI50 (NCI-H226): 1.63 µM (inactive)
- GI50 (NCI-H460): 0.82 µM (active)
- GI50 (OVCAR-5): 2.61 µM (inactive)
- GI50 (SF-268): 2.96 µM (inactive)
- GI50 (SF-295): 2.02 µM (inactive)
- GI50 (SK-MEL-5): 0.35 µM (active)
- GI50 (SK-OV-3): 1.45 µM (inactive)
- GI50 (SR): 0.973 µM (active)
- GI50 (U-251): 1.59 µM (inactive)
- GI50 (UO-31): > 21.3 µM (inactive)
